Experimental data taken from US12521438B2, “SMARCA degraders and uses thereof” (Kymera Therapeutics, Inc., priority 2019, dated 2026).

Experiments:
SMARCA2 = SMARCA2 (Homo sapiens, UniProt P51531); assay: MSD SMARCA2 degradation in A549 cell line; type: cell-based; parameters: endogenous in cells; host or cells: A549; settings: A549 cells, 24 hours; for DC50: read-out: SMARCA2 MSD A549 degradation 24h: Average external-Abs DC50
Protocol: Example 9. MSD SMARCA2 Degradation in A549 Cell Line
Cells were seeded into 96-well plates (A549 cells: 2×10^4 cells/well/100 ul media) abd incubated overnight. The next day, 200 nl compound were added into the intermediate plate with Echo (Labcyte 550) from source plate containing a 3-fold serial dilution from top concentration of 1 mM. The culture medium was changed with 80 ul of fresh medium and 80 ul of 2× compound solution was added into the well to make a final concentration of 1000 nM, 333.3 nM, 111.1 nM, 37.04 nM, 12.35 nM, 4.115 nM, 1.372 nM, 0.457 nM, 0.152 nM and 0 nM (DMSO). The wells were mixed and then incubated for 24 hours. The media was aspirated from the cultures and 60 ul pre-chilled PIPA lysis buffer (Boston BioProducts BP-115D) with protease/phosphatase inhibitor (Roche 05892791001/Roche 04906837001) was added into the well to lyze the cells for 20 minutes at 4° C. The MSD plate (L15XA) was coated with 40 ul cell lysate and incubated at 4° C. overnight. The next day, the plate was washed three times with TBST (CST #9997S), 150 ul/well. The MSD plates was blocked with 150 ul blocking buffer per well and shaked for 1 hr at RT, 600 rpm. The blocking buffer was 3% Blocker A (MSD, R93BA-4) in TBST. The MSD plate was washed three times with 150 ul/well of TBST and 25 ul/well of detection antibody (Rabbit anti-SMARCA2/BRM antibody, 100 μg/ml, ab223735) was added at final concentration of 1 ug/ml diluted in 1% Blocking buffer and shaken for 1 hour at RT, 600 rpm. The MSD plate was washed three times with 150 ul/well of TBST and 25 ul/well of SULFO-TAG anti-rabbit antibody (MSD, R32AB-1) was added at final concentration of 1 ug/ml diluted in 1% Blocking buffer and shaken for 1 hour at RT, 600 rpm. The MSD plate was washed three times with 150 ul/well of TBST and 150 ul/well of 2×MSD reading buffer diluted from 4× (MSD, R92TC-2) with water was added. Lastly, the MSD instrument was read.

SMARCA4 = biological target: T1, SMARCA4 (Homo sapiens, UniProt P51532); assay: SMARCA4 Western blot MV4-11 degradation; type: cell-based; settings: MV4-11 cells, 24 hours; for Dmax: read-out: SMARCA4 WB MV411 degradation 24h: Average Dmax %; for DC50: read-out: SMARCA4 WB MV411 degradation 24h: Average external-Abs DC50
T1 construct: endogenous in cells; host or cells: MV4-11
Protocol: Example 10. SMARCA2 and SMARCA 4 Western Blot MV4-11 Degradation
Cells were seeded into 6-well plates (MV4-11: 4×10^6 cells/well/1 ml) and 1 ml of 2× compound solution was added into the well to make the final concentration and the plates were mixed well and incubated for 24 hours (No cytotoxicity was observed). The cell were collected with media and spun at 3000 rpm for 5 minutes. The supernatant was aspirated and the well and the cells were washed with cold PBS once and combined for centrifugation again; the supernatant aspirated again. 200 ul pre-chilled RIPAlysis buffer (Boston BioProducts BP-115D) with protease/phosphatase inhibitor (Roche 05892791001/Roche 04906837001) was directly added into the tube to lyze the cells for 20 minutes on ice. The cell lysate were collected into EP tubes and spun at 13000 rpm for 20 minutes and 72 ul supernatant was transferred to a fresh EP tube containing 18 ul of 5× loading buffer (Beyotime Bio P0015) to make the loading samples. The samples were heated to 100° C. for 10 minutes and cooled to RT and microcentrifuged. 20 ul of samples were loaded onto SDS-PAGE gel (Novex, WG1402BOX) and the gel was run at 80 V for 20 minutes and 120 V for 1.5 hours. The samples were electrotransfer to a NC membrane using wet-transfer method with 250 mA for 2.5 hours. The membrane was blocked with LICOR blocking buffer (LI-COR, 927-50000) for 1 hour. The membrane was washed three times with TBST (CST #9997S), 5 minutes each. Incubation was performed with primary antibody prepared in blocking buffer with 0.1% Tween-20 (Solarbio, P8220) at 4° C. overnight (Anti-SMARCA2/BRM antibody (ab15597) 1:500; Anti-BRG1 antibody [EPR3912] (ab108318) 1:1000; Rabbit anti-Baf180 antibody [EPR15860] (Abcam,ab196022) 1:1000; mouse anti-beta-Actin (8H10D10) (CST #3700) 1:10000). The membrane was washed three times with TBST, 5 minutes each. Incubation with secondary antibody was performed for 1 hour at RT (anti-rabbit IgG (Licor, 926-32211) 1:5000; anti-mouse IgG (LI-COR, 926-68070) 1:5000). The membrane was washed three times with 5 minutes each and lastly the LiCOR was read.

Chain of SMARCA2 (P51531 whole entry): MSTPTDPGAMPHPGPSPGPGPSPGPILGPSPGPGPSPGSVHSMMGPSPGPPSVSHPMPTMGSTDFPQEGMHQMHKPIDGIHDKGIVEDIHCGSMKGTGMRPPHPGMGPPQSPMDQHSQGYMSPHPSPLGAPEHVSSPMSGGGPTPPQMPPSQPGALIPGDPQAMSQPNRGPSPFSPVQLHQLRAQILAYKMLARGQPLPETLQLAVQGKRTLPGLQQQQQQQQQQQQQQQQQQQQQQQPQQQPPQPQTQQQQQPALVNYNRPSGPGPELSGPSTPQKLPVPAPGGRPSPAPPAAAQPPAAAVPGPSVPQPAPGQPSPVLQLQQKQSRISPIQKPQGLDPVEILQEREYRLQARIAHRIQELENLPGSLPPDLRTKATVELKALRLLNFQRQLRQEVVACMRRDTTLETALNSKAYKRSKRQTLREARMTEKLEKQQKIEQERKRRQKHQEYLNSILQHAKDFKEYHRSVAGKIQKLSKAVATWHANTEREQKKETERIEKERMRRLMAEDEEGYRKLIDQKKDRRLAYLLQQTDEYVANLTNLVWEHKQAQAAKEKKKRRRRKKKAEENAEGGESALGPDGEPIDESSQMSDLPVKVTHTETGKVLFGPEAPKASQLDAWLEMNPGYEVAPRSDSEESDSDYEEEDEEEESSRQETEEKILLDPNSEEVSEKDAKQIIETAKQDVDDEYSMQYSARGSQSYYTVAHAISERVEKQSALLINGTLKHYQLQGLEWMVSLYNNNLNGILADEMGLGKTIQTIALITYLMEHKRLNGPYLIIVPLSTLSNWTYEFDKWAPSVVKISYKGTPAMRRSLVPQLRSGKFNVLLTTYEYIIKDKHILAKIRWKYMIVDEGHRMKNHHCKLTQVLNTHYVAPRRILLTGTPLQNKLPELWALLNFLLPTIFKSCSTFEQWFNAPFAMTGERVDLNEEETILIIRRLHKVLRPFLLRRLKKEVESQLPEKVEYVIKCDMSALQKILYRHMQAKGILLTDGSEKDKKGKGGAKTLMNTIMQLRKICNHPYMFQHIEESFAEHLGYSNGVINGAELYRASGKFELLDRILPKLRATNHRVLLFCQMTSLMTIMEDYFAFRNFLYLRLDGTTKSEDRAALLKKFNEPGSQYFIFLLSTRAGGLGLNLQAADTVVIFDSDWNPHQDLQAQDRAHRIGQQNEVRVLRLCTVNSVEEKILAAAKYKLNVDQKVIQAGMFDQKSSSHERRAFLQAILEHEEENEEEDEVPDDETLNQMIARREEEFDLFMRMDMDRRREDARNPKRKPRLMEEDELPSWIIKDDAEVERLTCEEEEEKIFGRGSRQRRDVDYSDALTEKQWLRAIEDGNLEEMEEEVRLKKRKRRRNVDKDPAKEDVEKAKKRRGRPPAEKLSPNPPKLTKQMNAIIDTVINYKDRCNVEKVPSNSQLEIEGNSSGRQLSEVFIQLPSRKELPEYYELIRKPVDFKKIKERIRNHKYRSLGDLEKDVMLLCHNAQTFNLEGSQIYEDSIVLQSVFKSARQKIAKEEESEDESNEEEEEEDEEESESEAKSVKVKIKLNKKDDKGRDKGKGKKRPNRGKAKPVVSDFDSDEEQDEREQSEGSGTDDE
T1 sequence (P51532 whole entry): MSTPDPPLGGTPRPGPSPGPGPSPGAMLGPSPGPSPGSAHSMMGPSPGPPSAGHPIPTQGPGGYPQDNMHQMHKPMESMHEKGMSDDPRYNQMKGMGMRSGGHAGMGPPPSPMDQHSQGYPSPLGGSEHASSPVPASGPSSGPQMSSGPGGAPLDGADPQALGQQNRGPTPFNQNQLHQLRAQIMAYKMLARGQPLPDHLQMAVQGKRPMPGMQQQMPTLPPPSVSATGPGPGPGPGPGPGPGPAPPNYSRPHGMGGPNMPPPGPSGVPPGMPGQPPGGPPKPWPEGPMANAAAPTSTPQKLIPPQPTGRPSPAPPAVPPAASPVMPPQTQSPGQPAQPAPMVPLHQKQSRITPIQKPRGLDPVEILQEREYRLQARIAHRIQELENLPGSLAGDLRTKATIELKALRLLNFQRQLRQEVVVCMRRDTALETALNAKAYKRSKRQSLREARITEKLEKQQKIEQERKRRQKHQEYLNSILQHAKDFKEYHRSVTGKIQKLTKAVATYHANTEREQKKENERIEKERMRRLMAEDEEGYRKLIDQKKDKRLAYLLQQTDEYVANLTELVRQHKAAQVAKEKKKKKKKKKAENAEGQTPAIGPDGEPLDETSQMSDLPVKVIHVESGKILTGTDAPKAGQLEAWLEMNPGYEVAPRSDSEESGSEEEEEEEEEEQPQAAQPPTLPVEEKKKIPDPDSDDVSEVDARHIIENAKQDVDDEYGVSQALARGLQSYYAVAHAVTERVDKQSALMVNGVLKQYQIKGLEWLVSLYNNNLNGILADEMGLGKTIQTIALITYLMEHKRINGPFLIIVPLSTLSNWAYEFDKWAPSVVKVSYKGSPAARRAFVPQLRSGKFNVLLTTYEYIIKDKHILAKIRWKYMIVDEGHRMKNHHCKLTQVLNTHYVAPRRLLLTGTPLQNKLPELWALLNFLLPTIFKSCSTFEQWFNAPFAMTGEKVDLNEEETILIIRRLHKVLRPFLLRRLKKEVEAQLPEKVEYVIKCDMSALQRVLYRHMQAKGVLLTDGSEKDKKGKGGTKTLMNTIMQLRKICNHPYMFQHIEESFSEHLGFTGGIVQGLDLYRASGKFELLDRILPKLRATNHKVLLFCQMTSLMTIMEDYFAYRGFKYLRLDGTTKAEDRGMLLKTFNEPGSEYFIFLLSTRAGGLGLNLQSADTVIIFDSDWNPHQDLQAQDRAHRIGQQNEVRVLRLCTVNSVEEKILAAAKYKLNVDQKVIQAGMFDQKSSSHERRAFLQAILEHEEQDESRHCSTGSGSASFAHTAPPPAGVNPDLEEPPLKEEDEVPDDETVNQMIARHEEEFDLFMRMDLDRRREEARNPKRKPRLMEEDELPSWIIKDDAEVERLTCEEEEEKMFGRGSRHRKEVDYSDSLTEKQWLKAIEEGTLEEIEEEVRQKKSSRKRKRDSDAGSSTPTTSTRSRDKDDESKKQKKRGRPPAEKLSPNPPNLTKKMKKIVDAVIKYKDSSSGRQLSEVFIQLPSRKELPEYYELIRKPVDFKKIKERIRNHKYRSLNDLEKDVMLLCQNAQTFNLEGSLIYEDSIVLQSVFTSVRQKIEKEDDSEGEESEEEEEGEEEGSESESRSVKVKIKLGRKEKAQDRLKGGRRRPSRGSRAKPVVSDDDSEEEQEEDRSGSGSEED

Dmax (SMARCA2) | DC50 (SMARCA2) | Dmax (SMARCA4) | DC50 (SMARCA4) | SMILES
< 50% | > 1000 nM |  |  | CN(CCCc1cnc(N2CCC(c3c[nH]c4nnc(-c5ccccc5O)cc34)CC2)nc1)CCCc1ccc2c(c1)n(C)c(=O)n2C1CCC(=O)NC1=O (centres unmarked) [I-2]
< 50% | > 1000 nM |  |  | CN(CC#Cc1cnc(N2CCC(c3c[nH]c4nnc(-c5ccccc5O)cc34)CC2)nc1)CCCc1ccc2c(c1)n(C)c(=O)n2C1CCC(=O)NC1=O (centres unmarked) [I-3]
70 to 90% | 501 to 1000 nM | > 90% | < 100 nM | Cc1ncsc1-c1ccc(CNC(=O)[C@@H]2C[C@@H](O)CN2C(=O)[C@@H](NC(=O)[C@H]2CC[C@@H](c3cnc(N4CCC(c5c[nH]c6nnc(-c7ccccc7O)cc56)CC4)nc3)CC2)C(C)(C)C)cc1 [I-45, (2S,4R)-4-hydroxy-1-((S)-2-((1s,4R)-4-(2-(4-(3-(2-hydroxyphenyl)-7H-pyrrolo[2,3-c]pyridazin-5-yl)piperidin-1-yl)pyrimidin-5-yl)cyclohexanecarboxamido)-3,3-dimethylbutanoyl)-N-(4-(4-methylthiazol-5-yl)benzyl)pyrrolidine-2-carboxamide]
< 50% | > 1000 nM | 70 to 90% | > 1000 nM | Cc1ncsc1-c1ccc(CNC(=O)[C@@H]2C[C@@H](O)CN2C(=O)[C@@H](NC(=O)C2(F)CC2)C(C)(C)C)c(OCCN2CCC(c3c[nH]c4nnc(-c5ccccc5O)cc34)CC2)c1 [I-47, (2S,4R)-1-((S)-2-(1-fluorocyclopropanecarboxamido)-3,3-dimethylbutanoyl)-4-hydroxy-N-(2-(2-(4-(3-(2-hydroxyphenyl)-7H-pyrrolo[2,3-c]pyridazin-5-yl)piperidin-1-yl)ethoxy)-4-(4-methylthiazol-5-yl)benzyl)pyrrolidine-2-carboxamide]
< 50% | > 1000 nM | < 50% | 501 to 1000 nM | Cc1ncsc1-c1ccc(CNC(=O)[C@@H]2C[C@@H](O)CN2C(=O)[C@@H](NC(=O)C2(F)CC2)C(C)(C)C)c(OCCCCCCN2CCC(c3c[nH]c4nnc(-c5ccccc5O)cc34)CC2)c1 [I-48]
< 50% | > 1000 nM | 70 to 90% | > 1000 nM | Cc1ncsc1-c1ccc(CNC(=O)[C@@H]2C[C@@H](O)CN2C(=O)[C@@H](NC(=O)C2(F)CC2)C(C)(C)C)c(OCCCCCCCCN2CCC(c3c[nH]c4nnc(-c5ccccc5O)cc34)CC2)c1 [I-49]
< 50% | > 1000 nM | < 50% | > 1000 nM | Cc1ncsc1-c1ccc(CNC(=O)[C@@H]2C[C@@H](O)CN2C(=O)[C@@H](NC(=O)CN(C)Cc2cnc(N3CCC(c4c[nH]c5nnc(-c6ccccc6O)cc45)CC3)nc2)C(C)(C)C)cc1 [I-50]
< 50% | > 1000 nM | < 50% | > 1000 nM | Cc1ncsc1-c1ccc(CNC(=O)[C@@H]2C[C@@H](O)CN2C(=O)[C@@H](NC(=O)CCCN(C)Cc2cnc(N3CCC(c4c[nH]c5nnc(-c6ccccc6O)cc45)CC3)nc2)C(C)(C)C)cc1 [I-51]
< 50% | > 1000 nM | 50 to 70% | > 1000 nM | Cc1ncsc1-c1ccc(CNC(=O)[C@@H]2C[C@@H](O)CN2C(=O)[C@@H](NC(=O)CCCCCN(C)Cc2cnc(N3CCC(c4c[nH]c5nnc(-c6ccccc6O)cc45)CC3)nc2)C(C)(C)C)cc1 [I-52, (2S,4R)-4-hydroxy-1-((S)-2-(6-(((2-(4-(3-(2-hydroxyphenyl)-7H-pyrrolo[2,3-c]pyridazin-5-yl)piperidin-1-yl)pyrimidin-5-yl)methyl)(methyl)amino)hexanamido)-3,3-dimethylbutanoyl)-N-(4-(4-methylthiazol-5-yl)benzyl)pyrrolidine-2-carboxamide]
70 to 90% | 501 to 1000 nM | 70 to 90% | < 100 nM | Cc1ncsc1-c1ccc(CNC(=O)[C@@H]2C[C@@H](O)CN2C(=O)[C@@H](NC(=O)CN2CCC(c3cnc(N4CCC(c5c[nH]c6nnc(-c7ccccc7O)cc56)CC4)nc3)CC2)C(C)(C)C)cc1 [I-53]
< 50% | > 1000 nM | > 90% | > 1000 nM | Cc1ncsc1-c1ccc(CNC(=O)[C@@H]2C[C@@H](O)CN2C(=O)[C@@H](NC(=O)CN2CCC(c3cc(N4CCC(c5c[nH]c6nnc(-c7ccccc7O)cc56)CC4)ncn3)CC2)C(C)(C)C)cc1 [I-54, (2S,4R)-4-hydroxy-1-((S)-2-(2-(4-(6-(4-(3-(2-hydroxyphenyl)-7H-pyrrolo[2,3-c]pyridazin-5-yl)piperidin-1-yl)pyrimidin-4-yl)piperidin-1-yl)acetamido)-3,3-dimethylbutanoyl)-N-(4-(4-methylthiazol-5-yl)benzyl)pyrrolidine-2-carboxamide]
< 50% | > 1000 nM | > 90% | > 1000 nM | NCC#Cc1cnc(N2CCC(c3c[nH]c4nnc(-c5ccccc5O)cc34)CC2)nc1 [I-55, 2-(5-(1-(5-(3-aminoprop-1-yn-1-yl)pyrimidin-2-yl)piperidin-4-yl)-7H-pyrrolo[2,3-c]pyridazin-3-yl)phenol]
